Measurements reported in patent US20060160790A1, “Thioureas as factor Xa inhibitors” (Portola Pharmaceuticals, Inc., priority 2004, published 2006).
pIC50: −log10 of the molar value.

Biological target: T1, human plasma protein factor Xa (Homo sapiens, UniProt P00742)
T1 construct: measure proteolytic activity of the enzyme (factor Xa) by following cleavage of paranitroanilide substrate; purchased Haematologic Technologies (Essex Junction, Vt.); host or cells: human plasma
Assay: Factor Xa IC50 determination (cleavage of paranitroanilide substrate S-2765)
Assay type: biochemical
Conditions: fXa 1 nM, S2765 100 μM, Tris buffered saline pH 7.4, room temperature
Protocol: An in vitro assay for detecting and measuring inhibition activity against Factor Xa is as follows:
The substrate S-2765 (Z-D-Arg-Gly-Arg-pNA.HCl) was obtained from Diapharma (West Chester, Ohio).
The human plasma protein factor Xa was purchased from Haematologic Technologies (Essex Junction, Vt.).
All assays, which are performed in 96-well microtiter plates, measure proteolytic activity of the enzyme (factor Xa) by following cleavage of paranitroanilide substrate. The assay buffer used for proteolytic assays was Tris buffered saline (20 mM Tris, 150 mM NaCl, 5 mM CaCl2, 0.1% Bovine serum albumin (BSA), 5% Dimethly Sulfoxide (DMSO) pH 7.4). In a 96-well microtiter plate, inhibitor was serially diluted to give a range of concentrations from 0.01 nM to 10 μM (final). Duplicate sets of wells were assayed and control wells without inhibitor were included. Enzyme was added to each well, (fXa concentration=1 nM), the plate was shaken for 5 seconds and then incubated for 5 minutes at room temperature. S2765 was added (100 μM final) and the plate was shaken for 5 seconds (final liquid volume in each well was 200 μl). The degree of substrate hydrolysis was measured at 405 nm on a Thermomax plate reader (Molecular Devices, Sunnyvale, Calif.) for 2 minutes. The initial velocities (mOD/min), for each range of inhibitor concentrations, were fitted to a four parameter equation using Softmax data analysis software. The parameter C, derived from the resulting curve-fit, corresponded to the concentration for half maximal inhibition (IC50).

T1 sequence (P00742 235-488 limits assumed): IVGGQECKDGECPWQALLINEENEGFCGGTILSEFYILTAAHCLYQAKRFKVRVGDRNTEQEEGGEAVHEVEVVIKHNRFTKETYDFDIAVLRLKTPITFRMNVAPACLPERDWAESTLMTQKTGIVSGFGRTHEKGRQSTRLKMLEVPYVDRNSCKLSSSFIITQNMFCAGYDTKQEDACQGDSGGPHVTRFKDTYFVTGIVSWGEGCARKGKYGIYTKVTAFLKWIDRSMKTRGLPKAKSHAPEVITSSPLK
T1 sequence (P00742 41-179 partner limits assumed): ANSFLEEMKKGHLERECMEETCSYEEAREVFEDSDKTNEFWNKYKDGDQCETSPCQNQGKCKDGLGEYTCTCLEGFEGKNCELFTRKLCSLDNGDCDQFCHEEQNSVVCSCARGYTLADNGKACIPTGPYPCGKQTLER

Row | Structure (SMILES) | pIC50
1 | NS(=O)(=O)c1ccccc1-c1ccc(NC(=O)C(NC(=S)Nc2ccc(Cl)cc2)c2ccccc2)cc1 (stereo in doubt) [Example 32, (S) N-[4-(2-aminosulfonylphenyl)phenyl]-2-phenyl-2-(4-chlorophenylaminothiocarbonylamino)-acetamide] | 6.30 to 7.00
2 | NS(=O)(=O)c1ccccc1-c1ccc(NC(=O)C(NC(=S)Nc2ccc(Cl)cc2)c2ccccc2)cc1 (stereo in doubt) [Example 33, (R) N-[4-(2-aminosulfonylphenyl)phenyl]-2-phenyl-2-(4-chlorophenylaminothiocarbonylamino)-acetamide] | ≥ 7.00
3 | Cc1cc2cc(NC(=S)NCC(=O)Nc3ccc(C(=N)N(C)C)cc3)ccc2o1 [Example 1, N-[4-(dimethylaminoimino)phenyl]-2-[(2-methylbenzo[b]furan-5-yl)aminothiocarbonylamino]-acetamide] | ≤ 6.30
4 | Cc1cc2cc(NC(=S)NCC(=O)Nc3ccc(C4=NCCN4C)cc3)ccc2o1 [Example 2, N-[4-(1-methyl-4,5-dihydro-1H-imidazol-2-yl)phenyl]-2-[(2-methylbenzo[b)furan-5-yl)aminothiocarbonylamino]-acetamide] | ≤ 6.30
5 | Cc1cc2cc(NC(=S)N[C@@H](CC(C)C)C(=O)Nc3ccc(C(=N)N(C)C)cc3)ccc2o1 [Example 3] | ≤ 6.30
6 | CN(C)C(=N)c1ccc(NC(=O)C(NC(=S)Nc2ccc(Br)cc2)c2ccccc2)cc1 (stereo not drawn) [Example 4, N-[4-(dimethylaminoimino)phenyl]-2-phenyl-2-(4-bromophenylaminothiocarbonylamino)-acetamide] | ≥ 7.00
7 | N=C(c1ccc(NC(=O)C(NC(=S)Nc2ccc(Br)cc2)c2ccccc2)cc1)N1CCCC1 (stereo not drawn) [Example 5] | ≥ 7.00
8 | N=C(c1ccc(NC(=O)C(NC(=S)Nc2ccc(Br)cc2)c2ccccc2)cc1)N1CCC1 (stereo not drawn) [Example 6] | ≥ 7.00
9 | COCCN(C)C(=N)c1ccc(NC(=O)C(NC(=S)Nc2ccc(Br)cc2)c2ccccc2)cc1 (stereo not drawn) [Example 7, N-{4-[(N-methyl-N-2-methoxyethyl)aminoimino]phenyl}-2-phenyl-2-(4-bromophenylaminothiocarbonylamino)-acetamide] | ≥ 7.00
10 | CCOC(=O)C1CCN(C(=N)c2ccc(NC(=O)C(NC(=S)Nc3ccc(Br)cc3)c3ccccc3)cc2)CC1 (stereo not drawn) [Example 8] | ≤ 6.30
11 | CN1CCN=C1c1ccc(NC(=O)C(NC(=S)Nc2ccc(Br)cc2)c2ccccc2)cc1 (stereo not drawn) [Example 9, N-[4-(1-methyl-4,5-dihydro-1H-imidazol-2-yl)phenyl]-2-phenyl-2-(4-bromophenylaminothiocarbonylamino)-acetamide] | ≥ 7.00
12 | N=C(c1ccc(NC(=O)C(NC(=S)Nc2ccc(F)cc2)c2ccccc2)cc1)N1CCCC1 (stereo not drawn) [Example 10] | ≥ 7.00
13 | C#Cc1ccc(NC(=S)NC(C(=O)Nc2ccc(C(=N)N3CCCC3)cc2)c2ccccc2)cc1 (stereo not drawn) [Example 11] | ≥ 7.00
14 | N=C(c1ccc(NC(=O)[C@@H](NC(=S)Nc2ccc(Br)cc2)c2ccccc2)cc1)N1CCCC1 [Example 13, (S) N-[4-(pyrrolidinylimino)phenyl]-2-phenyl-2-(4-bromophenylaminothiocarbonylamino)-acetamide] | ≥ 7.00
15 | N=C(c1ccc(NC(=O)[C@@H](NC(=S)Nc2ccc(Br)cc2)c2ccccc2)cc1)N1CCCCC1 [Example 14, (S) N-[4-(piperidinylimino)phenyl]-2-phenyl-2-(4-bromophenylaminothiocarbonylamino)-acetamide] | 6.30 to 7.00
16 | N=C(c1ccc(NC(=O)[C@@H](NC(=S)Nc2ccc(Br)cc2)c2ccccc2)cc1)N1CCCCCC1 [Example 15] | ≥ 7.00
17 | N=C(c1ccc(NC(=O)[C@@H](NC(=S)Nc2ccc(Cl)cc2)c2ccccc2)cc1)N1CCCC1 [Example 16] | ≥ 7.00
18 | N=C(c1ccc(NC(=O)[C@@H](NC(=S)Nc2ccc(Br)cc2F)c2ccccc2)cc1)N1CCCC1 [Example 17] | ≤ 6.30

Row | Structure (SMILES) | pIC50
19 | N=C(c1ccc(NC(=O)[C@@H](NC(=S)Nc2ccc(Br)cc2OC(F)(F)F)c2ccccc2)cc1)N1CCCC1 [Example 18] | ≤ 6.30
20 | Cc1cc(Br)ccc1NC(=S)N[C@H](C(=O)Nc1ccc(C(=N)N2CCCC2)cc1)c1ccccc1 [Example 19] | ≤ 6.30
21 | N=C(c1ccc(NC(=O)[C@@H](NC(=S)Nc2ccc(Cl)cc2Cl)c2ccccc2)cc1)N1CCCC1 [Example 20] | ≤ 6.30
22 | N=C(c1ccc(NC(=O)[C@@H](NC(=S)Nc2ccc(Br)c(Cl)c2)c2ccccc2)cc1)N1CCCC1 [Example 21, (S) N-[4-(pyrrolidinylimino)phenyl]-2-phenyl-2-(3-chloro-4-bromophenylaminothiocarbonylamino)-acetamide] | ≤ 6.30
23 | N=C(c1ccc(NC(=O)[C@@H](NC(=S)Nc2ccc(Br)cc2C(F)(F)F)c2ccccc2)cc1)N1CCCC1 [Example 22] | ≤ 6.30
24 | N=C(c1ccc(NC(=O)[C@@H](NC(=S)Nc2c(Br)cc(Br)cc2Br)c2ccccc2)cc1)N1CCCC1 [Example 23] | ≤ 6.30
25 | CC(C)C(NC(=S)Nc1ccc(Cl)cc1)C(=O)Nc1ccc(C2=NCCN2C)cc1 (stereo not drawn) [Example 24, N-[4-(1-methyl-4,5-dihydro-1H-imidazol-2-yl)phenyl]-2-isopropyl-2-(4-chlorophenylaminothiocarbonylamino]-acetamide] | ≥ 7.00
26 | O=C(Nc1ccc(N2CCOCC2=O)cc1)C(NC(=S)Nc1ccc(Cl)cc1)c1ccccc1 (stereo not drawn) [Example 25, N-[4-(3-oxo-morpholin-4-yl)phenyl]-2-phenyl-2-(4-chlorophenylaminothiocarbonylamino)-acetamide] | ≥ 7.00
27 | CN1CCC(N2CCN(C(=O)[C@@H](NC(=S)Nc3ccc(Cl)cc3)c3ccccc3)CC2)CC1 [Example 26] | ≥ 7.00
28 | CN1CCC(N2CCN(C(=O)[C@H](NC(=S)Nc3ccc(Cl)cc3)c3ccccc3)CC2)CC1 [Example 27] | ≥ 7.00
29 | Cc1cc2cc(NC(=S)NC(C(=O)Nc3ccc(-c4ccccc4S(N)(=O)=O)cc3)c3ccccc3)ccc2o1 (stereo not drawn) [Example 28, N-[4-(2-aminosulfonylphenyl)phenyl]-2-phenyl-2-[(2-methylbenzo[b]furan-5-yl)aminothiocarbonylamino]-acetamide] | ≥ 7.00
30 | NS(=O)(=O)c1ccccc1-c1ccc(NC(=O)C(NC(=S)Nc2ccc(Br)cc2)c2ccccc2)cc1 (stereo not drawn) [Example 29, N-[4-(2-aminosulfonylphenyl)phenyl]-2-phenyl-2-[(4-bromophenyl)aminothiocarbonylamino]-acetamide] | ≥ 7.00
31 | NS(=O)(=O)c1ccccc1-c1ccc(NC(=O)[C@@H](NC(=S)Nc2ccc(Br)cn2)c2ccccc2)cc1 [Example 30, (S) N-[4-(2-aminosulfonylphenyl)phenyl]-2-phenyl-2-(5-bromopyridin-2-ylaminothiocarbonylamino)-acetamide] | ≥ 7.00
32 | NS(=O)(=O)c1ccccc1-c1ccc(NC(=O)[C@H](NC(=S)Nc2ccc(Br)cn2)c2ccccc2)cc1 [Example 31, (R) N-[4-(2-aminosulfonylphenyl)phenyl]-2-phenyl-2-(5-bromopyridin-2-ylaminothiocarbonylamino)-acetamide] | 6.30 to 7.00
33 | O=C(Nc1ccc(-n2ccccc2=O)cc1)[C@@H](NC(=S)Nc1ccc(Cl)cc1)c1ccccc1 [Example 34, (2S) N-[4-(2-pyridon-1-yl)phenyl]-2-phenyl-2-(4-chlorophenylaminothiocarbonylamino)-acetamide] | ≥ 7.00
34 | O=C(Nc1ccc(-n2ccccc2=O)cc1)[C@H](NC(=S)Nc1ccc(Cl)cc1)c1ccccc1 [Example 35, (2R) N-[4-(2-pyridon-1-yl)phenyl]-2-phenyl-2-(4-chlorophenylaminothiocarbonylamino)-acetamide] | ≥ 7.00
35 | O=C(Nc1ccc(-n2ccccc2=O)cc1F)[C@H](NC(=S)Nc1ccc(Cl)cc1)c1ccccc1 [Example 36, (2R) N-[4-(2-pyridon-1-yl)-2-fluorophenyl]-2-phenyl-2-(4-chlorophenylaminothiocarbonylamino)-acetamide] | ≥ 7.00
36 | CN1CCC(C2CCN(C(=O)[C@H](NC(=S)Nc3ccc(Cl)cc3)c3ccccc3)CC2)CC1 [Example 37, (2R) 4-(1-methylpiperidin-4-yl)piperidin-1-yl-2-phenyl-2-(4-chlorophenylaminothiocarbonylamino)-acetamide] | ≤ 6.30
